The numbers were not newly measured in patent US11844836B2, “Topical pharmaceutical composition based on semifluorinated alkanes” (DERMALIQ THERAPEUTICS, INC., priority 2011, dated 2023), which cites them from elsewhere.

For this series the following is noted: testosterone as model drug; pig skin; Hardung, Doctoral Thesis 2008, p. 103.

On to `CCCCCCCCC(F)(F)C(F)(F)C(F)(F)C(F)(F)C(F)(F)C(F)(F)F` [F6H8], for which the “penetration-enhancing effect of the SFA carrier” value is reported as “does not affect an improved penetration into the skin”.
